As a reminder, the Km is the substrate concentration at which the rate is half of its maximum. The kcat is the number of substrate molecules converted per active site and unit of time at saturation. Broadly, the kcat/Km is the second-order rate constant that governs catalysis at low substrate concentration.

Data on four molecules can be found in patent US20260357222A1, “GROWTH-BASED SELECTION PLATFORM FOR NONCANONICAL COFACTOR OXIDIZING ENZYMES” (The Regents of the University of California, priority 2022, published 2026).

Data set [1] has as its target T1, Lactobacillus pentosus NADH oxidase (Lp Nox), wild type, SEQ ID NO:1 (Lactiplantibacillus pentosus, UniProt A0A0U3FIG2).
T1 sequence (A0A0U3FIG2 1-450): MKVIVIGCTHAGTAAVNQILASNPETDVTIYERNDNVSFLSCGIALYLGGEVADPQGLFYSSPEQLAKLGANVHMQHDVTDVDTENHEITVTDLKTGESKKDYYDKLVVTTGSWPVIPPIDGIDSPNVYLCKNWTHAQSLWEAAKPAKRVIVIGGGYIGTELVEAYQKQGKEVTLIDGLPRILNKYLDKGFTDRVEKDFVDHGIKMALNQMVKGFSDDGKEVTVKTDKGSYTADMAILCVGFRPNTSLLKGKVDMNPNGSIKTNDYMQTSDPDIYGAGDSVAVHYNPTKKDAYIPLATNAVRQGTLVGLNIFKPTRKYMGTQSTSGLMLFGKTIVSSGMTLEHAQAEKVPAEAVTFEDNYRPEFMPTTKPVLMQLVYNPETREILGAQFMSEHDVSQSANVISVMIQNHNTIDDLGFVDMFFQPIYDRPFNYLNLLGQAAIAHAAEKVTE
The following applies: role: cofactor; oxidation of MNAH and BNAH by wild-type Lp Nox; cited from earlier work.

Data set [2] deals with T2, Lactobacillus pentosus NADH oxidase (Lp Nox) variant LP-7 (I158S-D177W-V240L), SEQ ID NO:3 (Lactiplantibacillus pentosus, UniProt A0A0U3FIG2, D177W/I158S/V240L).
T2 construct: variant LP-7
T2 sequence (A0A0U3FIG2 1-450 I158S/D177W/V240L): T1 sequence (A0A0U3FIG2 1-450) with I158S, D177W, V240L
Kind of data set: Lp Nox enzymatic kinetics, cofactor oxidation at 340 nm, variant LP-7. Format: biochemical. The following applies: role: cofactor; apparent; 50 mM Tris-HCl pH 7.0, 37 °C; cofactor 0 to 2 mM. As for the experimental part:
(§1) Protein Expression and Purification. Lp Nox wild type or variants (see Table 1) are expressed with E. coli BL21 (DE3) with plasmids inoculated in 2× YT media with 200 mg L^−1 ampicillin. Expression was carried out by inoculation of 20 mL 2× YT media supplied with antibiotics and an overnight culture incubated at 30 °C, 250 RPM with an OD600nm of 0.072. Cells were grown at 37 °C in 50 mL conical tubes, and the cultures were induced with 0.5 mM IPTG at an OD600nm of 0.6-1.0. The 20 mL culture was then incubated at 27 °C and 250 RPM for 24 h. After 24 h, cells were harvested for protein extraction (centrifugation at 4 °C, 3000 RPM, 20 min). Cell pellets were resuspended in Zymo His-Binding buffer (Zymo Research Corporation) supplied with 0.15 mM FAD, 1 μL/mL DNase (Sigma Aldrich) and 1 mM InSolution [COMPOUND LEFT OUT] (Sigma Aldrich). The resuspended cell mixture was added to 0.5 mL of 0.1 mm glass beads (Biospec) and homogenized using a benchtop homogenizer (MP Biomedicals). Cell debris was separated from the crude extract by centrifugation at 4 °C and 15,000 RPM for 5 min. Protein purification was performed using His-Spin Protein Miniprep (Zymo Research Corporation) according to the manufacturer's instructions. The concentrations of purified protein were quantified by a Bradford assay using BSA as a standard. Purified protein was stored in aliquots with 20% (v/v) glycerol at −80 °C.
(§2) NMNH generation. NMNH generation was performed in 20 mL reaction volumes in a 50 ml conical tube containing 200 mM Tris-Cl at pH 8.0, 100 mM sodium chloride, 3 mM potassium chloride, 200 mM glucose, and 20 m MNMN^+. The reaction was initiating by spiking 500 ng of purified Bacillus subtilis glucose dehydrogenase I195R8. The reaction was incubated at 30 °C until reaction progression stopped, approximately 6 h. Reaction progression was monitored by observing the increase in light absorption at 340 nm, corresponding to the reduction of NMN^+ to NMNH. Then, the solution was filtered through a 15 kD cutoff filter to remove the protein. To purify the NMNH, the flowthrough was mixed with HPLC-grade acetonitrile to a final concentration of 70% acetonitrile, and the solution was passed through a Phenomenex Strata NH2 (2 g/12 mL, 55 μm, 70 Å) solid phase extraction column. The column was washed twice with 4 mL of 70:30 acetonitrile:water, then twice with 4 mL of 50:50 acetonitrile:water, twice with 4 mL of 30:70 acetonitrile:water, twice with 4 mL of nanopurified water, and finally twice with 4 mL of methanol. To elute the NMNH from the column, 2 mL of a solution containing 50:50 ammonium hydroxide:methanol was added to the column and incubated for 3 minutes before eluting. The elution step was repeated until no NMNH remained in the flow through, as monitored by light absorption at 340 nm. The elution fractions containing NMNH were pooled and aliquoted in 1 mL volumes into clean tubes. The solutions were dried over air and stored at −80 °C until use.
(§3) Lp Nox Enzymatic Assays and Kinetic study with NMNH, NAD(P) H. The Lp Nox activity (see FIG. 4A) was determined by the change in light absorption at 340 nm at 37 °C in 50 mM Tris-Cl buffer pH 7.0. The reactions were started by adding the purified protein to the prewarmed 37 °C assay mixture containing 0.3 mM of respective cofactor. The absorbance change at 340 nm for NAD(P) H and NMNH was detected using a SpectraMax M3 microplate reader. For kinetics parameter determination (see Table 2), cofactor concentrations were varied from 0 to 2 mM and the results were fitted to the standard Michaelis-Menten equation or Lineweaver-Burk equation to acquire catalytic efficiencies (kcat/Km) when the cofactor concentration tested could not saturate the enzyme activity or during the presence of substrate inhibition. Cofactor concentration over 2 mM could not be measured accurately on M3 spectrometer due to detector absorbance saturation at 340 nm.

Data set [3] concerns the target T3, Lactobacillus pentosus NADH oxidase (Lp Nox) variant LP-3 (I158S-D177W-G178E-V240L), SEQ ID NO:6 (Lactiplantibacillus pentosus, UniProt A0A0U3FIG2, D177W/G178E/I158S/V240L).
T3 construct: variant LP-3
T3 sequence (A0A0U3FIG2 1-450 I158S/D177W/G178E/V240L): T1 sequence (A0A0U3FIG2 1-450) with I158S, D177W, G178E, V240L
The experiment in a line: Lp Nox enzymatic kinetics, cofactor oxidation at 340 nm, variant LP-3. To be noted: role: cofactor; apparent; 50 mM Tris-HCl pH 7.0, 37 °C; cofactor 0 to 2 mM. It is filed as biochemical. As for the experimental part: as §1, §2, §3

Data set [4] deals with T4, Lactobacillus pentosus NADH oxidase (Lp Nox) variant LP-3-EP (I158S-D177W-G178E-V240L-P362H-V395L), SEQ ID NO:7 (Lactiplantibacillus pentosus, UniProt A0A0U3FIG2, D177W/G178E/I158S/P362H/V240L/V395L).
T4 construct: variant LP-3-EP
T4 sequence (A0A0U3FIG2 1-450 I158S/D177W/G178E/V240L/P362H/V395L): T1 sequence (A0A0U3FIG2 1-450) with I158S, D177W, G178E, V240L, P362H, V395L
The experiment in a line: Lp Nox enzymatic kinetics, cofactor oxidation at 340 nm, variant LP-3-EP. Format: biochemical. As for the experimental part: as §1, §2, §3

Substrate in data set [5]: NC(=O)C1=CN([C@@H]2O[C@H](COP(=O)(O)OP(=O)(O)OC[C@H]3O[C@@H](n4cnc5c(N)ncnc54)[C@H](O)[C@@H]3O)[C@@H](O)[C@H]2O)C=CC1
The experiment in a line: Lp Nox enzymatic kinetics, cofactor oxidation at 340 nm, wild type. Format: biochemical, Lactobacillus pentosus. To be noted: other: role: cofactor, apparent, 50 mM Tris-HCl pH 7.0, 37 °C, cofactor 0 to 2 mM. As for the experimental part:
as §1, with “Purified protein was stored in aliquots with 20% (v/v) glycerol at −80 °C.” left out
NMNH generation. […] Reaction progression was monitored by observing the increase in light absorption at 340 nm, corresponding to the reduction of NMN^+ to NMNH. […] The elution step was repeated until no NMNH remained in the flow through, as monitored by light absorption at 340 nm. […]
Lp Nox Enzymatic Assays and Kinetic study with NMNH, NAD(P) H. The Lp Nox activity (see FIG. 4A) was determined by the change in light absorption at 340 nm at 37 °C in 50 mM Tris-Cl buffer pH 7.0. […] The absorbance change at 340 nm for NAD(P) H and NMNH was detected using a SpectraMax M3 microplate reader. […] Cofactor concentration over 2 mM could not be measured accurately on M3 spectrometer due to detector absorbance saturation at 340 nm.

Residue numbers refer to the chain shown, from its start.

`CN1C=CCC(C(N)=O)=C1` [MNAH, N-methyl-1,4-dihydronicotinamide]: the “catalytic efficiencies (in words)” value in data set [1] is on record as “low catalytic efficiencies”.
`NC(=O)C1=CN([C@@H]2O[C@H](COP(=O)(O)OP(=O)(O)OC[C@H]3O[C@@H](n4cnc5c(N)ncnc54)[C@H](O)[C@@H]3O)[C@@H](O)[C@H]2O)C=CC1` [NADH, nicotinamide adenine dinucleotide]: in data set [2], the Km came out at 1700 ± 200 µM, the turnover number (kcat) was determined as 47 ± 4 s⁻¹ and the kcat/Km came to 28000 ± 1000 M⁻¹ s⁻¹. For the same molecule, in data set [3], the Km is 1900 ± 40 µM, the kcat amounted to 31 ± 1 s⁻¹ and the specificity constant (kcat/Km) is 17000 ± 1000 M⁻¹ s⁻¹. Moreover, the kcat/Km in data set [4] (role: cofactor, 50 mM Tris-HCl pH 7.0, 37 °C, estimated based on kinetics under lower cofactor concentrations before inhibition was observed) is 49 ± 2.0^c mM^−1s^−1. The “inhibition of LP 3-EP activity by the cofactor” value in data set [4] (role: inhibitor (cofactor inhibition), above 1 mM NADH or NADPH, fits poorly with the substrate inhibition rate equation) was “strongly inhibited”.
Consider `NC(=O)C1=CN(Cc2ccccc2)C=CC1` [BNAH, 1-Benzyl-1,4-dihydronicotinamide], for which, in data set [1], the “catalytic efficiencies (in words)” value is recorded as “low catalytic efficiencies”.

B1: Lactobacillus pentosus NADH oxidase (Lp Nox), wild type, SEQ ID NO:1 (Lactiplantibacillus pentosus) (protein)
chain: T1 sequence (A0A0U3FIG2 1-450)
On to B1, for which, in data set [5], the Michaelis constant (Km) worked out at 24 ± 5 µM, the kcat was determined as 21 ± 1 s⁻¹ and the catalytic efficiency (kcat/Km) came out at 844000 ± 4000 M⁻¹ s⁻¹.
